PubChem BioAssay (NCI)
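All cell lines were grown in 96-well plates and treated with compound for 48 hours. TGI: total growth inhibition.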

How the values were obtained:
Experiment in all cases: inhibition of tumour cell growth, NCI panel, 48 h
UACC-257 melanoma = tested on: UACC-257 melanoma
OVCAR-5 ovarian = tested on: OVCAR-5 ovarian
KM12 colon = tested on: KM12 colon
TK-10 renal = tested on: TK-10 renal
HOP-62 NSCLC = tested on: HOP-62 NSCLC
SF-539 CNS = tested on: SF-539 CNS
U251 CNS = tested on: U251 CNS
LOX IMVI melanoma = tested on: LOX IMVI melanoma
RPMI-8226 leukemia = tested on: RPMI-8226 leukemia
EKVX NSCLC = tested on: EKVX NSCLC

Compound	TGI (UACC-257 melanoma) [µM]	TGI (OVCAR-5 ovarian) [µM]	TGI (KM12 colon) [µM]	TGI (TK-10 renal) [µM]	TGI (HOP-62 NSCLC) [µM]	TGI (SF-539 CNS) [µM]	TGI (U251 CNS) [µM]	TGI (LOX IMVI melanoma) [µM]	TGI (RPMI-8226 leukemia) [µM]	TGI (EKVX NSCLC) [µM]
CCOC(=O)c1cn2c(n1)sc1c(Cl)c(Cl)ccc12	> 100	> 100	> 58.2	> 79.4	> 51.3	21.4	> 100	> 100	> 100	> 100
COc1cc(OC)nc(-n2c(N)c(C#N)c3ccc([N+](=O)[O-])cc3c2=O)n1	> 100	> 100	> 100	> 100	> 100	> 100	> 100	> 100	> 100	> 100
C/C=C\C(CC(=O)NCCC1CN(S(=O)(=O)c2ccc(C)cc2)c2ccccc21)CC(=O)OC (stereo not given)	> 100	> 100	> 100	> 100	> 100		> 100		> 100	> 100
O=S(=O)(O)C(=Nc1cccc(Cc2ccccc2)c1)Nc1cccc(Cc2ccccc2)c1	48.7	33.7	31.5	35.6	> 100	34.7	37.8	26.6	83.1	30.9
CC(C)OCC1CC(CC(=O)Nc2nncs2)C(=O)O1 (stereo not given)	> 100	> 100	> 100	> 100	> 100	> 100	> 100	> 100	> 100	> 100
C=CCC1(OC(C)=O)C2OC(=O)C1(O)OCC2O (stereo not given)	> 100	> 100	> 100	> 100	> 100	> 100	> 100	> 100	> 100	> 100
CNc1ccc2c(c1)[C@@]1(C)c3ccccc3[C@@H](C2)N1C	60.6	86.2	78.3	86.2	> 100		47.5	36.6	38.9	97.3
COc1ccc(C(=O)c2sc(Nc3ccc(Cl)cc3)nc2N)cc1	> 90.2	> 100	> 100	33.4	38.6	66.2	> 55.5	> 100	> 43.5	> 100
CC(=O)Oc1ccc(-c2cc3ccccc3oc2=O)cc1	> 100	> 100	39.9	> 100	> 100	> 100	> 100	> 100	> 100	> 100
O=C(CCCN1CCC2(CC1)CC(=O)N(N1CCCCCC1)C2=O)c1ccccc1	> 100	> 100		> 100	> 100	> 100	> 100	> 100	> 100	> 100
CC(=O)O[C@H]1[C@@H]2OC(=O)[C@@](O)(CC3CCCO3)[C@@H]2CC(=O)[C@](C)(O)CC/C=C(\C)CCC[C@@H]1C (stereo not given in full)	> 100	> 100	> 100	> 100		36.7	> 100	46.1	> 100	> 100
C=CCOC(=O)NC1C(OC(C)[C@@H](NC(=O)OCc2ccccc2)C(=O)OC(C)(C)C)OC(COC(C)=O)C(OC(C)=O)C1OC(C)=O (stereo not given in full)	> 100	> 100	> 100	> 100	> 100	> 100	> 100	> 100	> 100	> 100
Cc1cc(N(CCC#N)CCC#N)ccc1/C(N=Nc1ccc(C(=O)O)cc1)=N\NC(=O)c1cc(Cl)ccc1O	> 100	> 100	> 100	> 100	65.4		63.1		> 100	> 100
COc1cc(-c2cc(-c3ccccc3)nc(-c3c(OC)ccc4c(C)cc(=O)oc34)c2)cc(OC)c1OC	> 100		> 100	> 100	> 100	> 100	> 100	> 100		> 100
CCOP(=O)(OCC)C(Nc1ccc(Br)cc1)c1cccc([N+](=O)[O-])c1 (stereo not given)		67.6	32.1	88.1	39.8	45.6	36.1	23.3	98.2	10.8
O=C(c1ccc(Cl)cc1)N(C(=O)N1CCC(c2ccccc2)CC1)c1ccccc1	83	57.3	44.6	> 100		> 100	> 100	> 100	52.3	69
CCN(CC)/C(Sc1ccccc1)=C(\C(Cl)=C(Cl)Cl)[N+](=O)[O-]	44.5		36.3	31.3	42.4	33		25.8		34.7

Compound	TGI (UACC-257 melanoma) [µM]	TGI (OVCAR-5 ovarian) [µM]	TGI (KM12 colon) [µM]	TGI (TK-10 renal) [µM]	TGI (HOP-62 NSCLC) [µM]	TGI (SF-539 CNS) [µM]	TGI (U251 CNS) [µM]	TGI (LOX IMVI melanoma) [µM]	TGI (RPMI-8226 leukemia) [µM]	TGI (EKVX NSCLC) [µM]
C=CCc1cccc2cc(C(=O)Nc3ccccc3)c(=N)oc12	> 100	> 100	> 100		> 100	> 100	> 100	> 100	> 100	
CN1CCN(c2ncc3c(n2)sc2c(=O)n(-c4ccccc4)cnc23)CC1	> 100	> 100	> 100	> 100	> 100		> 100	> 100	> 100	
CN1CNc2nc(N)n(C)c(=O)c2C1	> 10	> 10	> 10	> 10		> 10	> 10			> 10
Cc1cn(C2CC(O)C(COC(=O)NCCC(F)(F)C(F)(F)C(F)(F)C(F)(F)F)O2)c(=O)[nH]c1=O (stereo not given)	> 100	> 100	> 100	> 100	> 100	> 100	> 100			> 100
CCOC(=O)Cn1c(=O)c2nc(SC)sc2n(CC)c1=S	> 100	> 100	> 100	> 100	> 100	> 100	> 100	> 100	> 100	
CCSc1n/c(=C\c2ccco2)c2nncn12		> 100	> 100	> 100	> 100		> 100	> 100	> 100	> 100
O=C1CSC(c2ccc([N+](=O)[O-])cc2)N1c1ccc(-n2c(-c3ccccc3)nc3ccccc3c2=O)cc1 (stereo not given)	> 100		> 100	> 100	> 100	> 100	> 100	> 100	> 100	> 100
COc1ccc(-n2c(=O)[nH]n(C(C)=O)c2=O)cc1	> 100	> 100	> 100	> 100		> 100	> 100	> 100	> 100	> 100
N#CC(=C1CCN(CCCC(=O)c2ccc(F)cc2)CC1)c1ccccc1	> 100	> 100	> 100	> 100		> 100	> 100	> 100	> 100	> 100
CC[C@]1(Cc2ccc(OC)c(OC)c2)C=[N+]([O-])O[C@H](OC2CCCC2(c2ccccc2)c2ccccc2)[C@@H]1OC(C)=O (stereo not given in full)	19.2	44.2	8.89	10.8	29.4		> 62	6.47		25.3
O=C1NC(=S)N/C1=C\c1ccc(Br)s1	> 100	> 100	> 100	> 100	> 100		> 100	> 100	81.3	> 100
S=C1N(/N=C/c2c3ccccc3cc3ccccc23)C(=Nc2ccccc2)C(=Nc2ccccc2)N1c1ccccc1	> 100	> 100	> 100	> 100	> 100	> 100	> 100		> 100	> 100
COC(=O)C1CN=CN1CCc1ccccc1 (stereo not given)	> 100	> 100	> 100	> 100		> 100	> 100	> 100	> 100	> 100
CCCN(CCCc1ccccc1)CCc1ccc2[nH]c(=S)[nH]c2c1	44.3	> 100	> 100	> 100	> 100		> 100	> 100	39.9	> 100
COc1cc(CO)c(CC(=O)NCCCc2ccccc2)cc1OC	> 100	> 100	> 100	> 100	> 100		> 100	> 100		> 100
CCOC(=O)c1c(N)sc2c1C(C)(C(=O)OCC)CC2 (stereo not given)	> 100	> 100	> 100	> 100	> 100		> 100		> 100	> 100
Cc1ccc(NC2=CC(=O)C(NO)c3ccccc32)cc1 (stereo not given)	3.84	25	20.2	62.7	14.6	8.8	11.9	11.7		8.57
